In ChEMBL document CHEMBL1201862, “PubChem BioAssay data set” (2004):
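Cultured in 96-well plates, cells were exposed to test compound for 48 hours across five concentrations. Abbreviation: GI50, concentration required for 50% inhibition of growth.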 Activity calls are given as the source filed them. Cut-off read from the data, not from the text of the source: active = GI50 up to about 1.1 µM and inactive = higher.

Experiments:
Assay in all cases: inhibition of tumour cell growth, NCI panel, 48 h
[1] = tested on: CCRF-CEM
[2] = tested on: DMS-273
[3] = tested on: HCC 2998
[4] = tested on: HL-60
[5] = tested on: HOP-92
[6] = tested on: Malme-3M
[7] = tested on: NCI-H460
[8] = tested on: NCI-H522
[9] = tested on: OVCAR-5
[10] = tested on: SF-268
[11] = tested on: SN12C
[12] = tested on: TK-10
[13] = tested on: UACC-257
[14] = tested on: BT-549
[15] = tested on: DU-145
[16] = tested on: Hs-578T
[17] = tested on: MCF7
[18] = tested on: RPMI-8226
[19] = tested on: RXF 393
[20] = tested on: DMS-114

Row | SMILES | GI50 [1] | GI50 [2] | GI50 [3] | GI50 [4] | GI50 [5] | GI50 [6] | GI50 [7] | GI50 [8] | GI50 [9] | GI50 [10] | GI50 [11] | GI50 [12] | GI50 [13] | GI50 [14] | GI50 [15] | GI50 [16] | GI50 [17] | GI50 [18] | GI50 [19] | GI50 [20]
1 | CCCCCCCCCCCCCCCCCCCCCCC(=O)N[C@H]1CCc2cc(OC)c(OC)c(OC)c2-c2ccc(SC)c(=O)cc21 | 30.1 µM (inactive) | 27.9 µM (inactive) | 25.5 µM (inactive) | 17.1 µM (inactive) | 34.4 µM (inactive) | 51.5 µM (inactive) | 28.4 µM (inactive) | 13.4 µM (inactive) | > 100 µM (inactive) | 59.7 µM (inactive) | 28.2 µM (inactive) | 40.1 µM (inactive) | 39.2 µM (inactive) |  |  |  |  |  |  | 
2 | CN(C)c1ccc(/C=C/c2nc3ccccc3s2)cc1 | > 100 µM (inactive) |  | > 100 µM (inactive) | 6.08 µM (inactive) | > 100 µM (inactive) | > 100 µM (inactive) | > 100 µM (inactive) | > 100 µM (inactive) | > 100 µM (inactive) | > 100 µM (inactive) | > 100 µM (inactive) | > 100 µM (inactive) | > 100 µM (inactive) | 80 µM (inactive) | > 100 µM (inactive) | > 100 µM (inactive) | > 100 µM (inactive) | > 100 µM (inactive) | > 100 µM (inactive) | 
3 | Cc1nc2ccccc2c(=O)n1NC(=O)c1ccc([N+](=O)[O-])cc1 | > 100 µM (inactive) |  | > 100 µM (inactive) | > 100 µM (inactive) | > 100 µM (inactive) | > 100 µM (inactive) | > 100 µM (inactive) | > 100 µM (inactive) | > 100 µM (inactive) | > 100 µM (inactive) | > 100 µM (inactive) | > 100 µM (inactive) | > 100 µM (inactive) | > 100 µM (inactive) | > 100 µM (inactive) | > 100 µM (inactive) | > 100 µM (inactive) | > 100 µM (inactive) | > 100 µM (inactive) | 
4 | COc1cc(C2C3=C(COC3=O)Oc3cc4c(cc32)OCO4)ccc1OC(C)=O (stereo not drawn) | 0.35 µM (active) |  | 1.01 µM (active) | 0.188 µM (active) | 6 µM (inactive) | 0.0893 µM (active) | 0.45 µM (active) | 0.0948 µM (active) | 5.22 µM (inactive) | 1.09 µM (active) | 2.19 µM (inactive) | > 100 µM (inactive) | > 100 µM (inactive) | 0.222 µM (active) | 0.492 µM (active) | 0.112 µM (active) | 0.29 µM (active) | 0.34 µM (active) | 0.67 µM (active) | 
5 | [N-]=[N+]=Nc1ccccc1C(=O)N1C(=O)c2ccccc2C(=O)N(C(=O)c2ccccc2N=[N+]=[N-])c2ccccc21 | 11.1 µM (inactive) |  | > 100 µM (inactive) | > 10 µM (inactive) | 23.1 µM (inactive) | > 100 µM (inactive) | 66.7 µM (inactive) | 30.5 µM (inactive) | > 100 µM (inactive) | 71 µM (inactive) | 82.8 µM (inactive) | 67.5 µM (inactive) | 82.4 µM (inactive) | 55.2 µM (inactive) | > 100 µM (inactive) | 35.6 µM (inactive) | 52.2 µM (inactive) | 36.8 µM (inactive) | 27.4 µM (inactive) | 
6 | COc1cc(C(c2c(O)c3ccccc3oc2=O)c2c(O)c3ccccc3oc2=O)ccc1O | 28.8 µM (inactive) |  | 18.9 µM (inactive) | 24.7 µM (inactive) | 14.6 µM (inactive) | 19 µM (inactive) | 20.9 µM (inactive) | 20.8 µM (inactive) | 18.7 µM (inactive) | 21.5 µM (inactive) | 19.1 µM (inactive) | 20.3 µM (inactive) | 19.1 µM (inactive) | 19.1 µM (inactive) | 21.6 µM (inactive) | 40.4 µM (inactive) | 19.3 µM (inactive) | 34.6 µM (inactive) | 18 µM (inactive) | 
7 | C=C(Cl)[C@](Cl)(CBr)CC[C@@H](Br)C(C)(C)Cl [HALOMON] | 14.4 µM (inactive) |  | 1.5 µM (inactive) | 0.421 µM (active) | 0.378 µM (active) | 11.5 µM (inactive) | 0.955 µM (active) | 15.5 µM (inactive) | 1.56 µM (inactive) | 0.515 µM (active) | 3.23 µM (inactive) | 1.81 µM (inactive) | 1.4 µM (inactive) | 1.29 µM (inactive) | 1.1 µM (active) | 0.611 µM (active) | 0.822 µM (active) | 0.0607 µM (active) | 0.121 µM (active) | 
8 | O=C(O)CCC(=O)Nc1ccc2ccccc2c1 | > 100 µM (inactive) |  | > 100 µM (inactive) | > 100 µM (inactive) | > 100 µM (inactive) | > 100 µM (inactive) | > 100 µM (inactive) | > 100 µM (inactive) | > 100 µM (inactive) | > 100 µM (inactive) | > 100 µM (inactive) | > 100 µM (inactive) | > 100 µM (inactive) | > 100 µM (inactive) | > 100 µM (inactive) | > 100 µM (inactive) | > 100 µM (inactive) | > 100 µM (inactive) | > 100 µM (inactive) | 
9 | CC[C@@H]1/C=C/C=C/C[C@H](C)[C@@H](O)[C@](C)(O)C(=O)[C@H](C)[C@@H](O)[C@H](C)C(=O)[C@H](C)[C@@H](O)[C@H](C)/C=C/C(=O)O[C@H]2[C@@H](C)[C@@H](CC1)O[C@]1(O[C@H](CC(C)O)[C@H](C)CC1=O)[C@@H]2C (stereo partly drawn) | 3.56 µM (inactive) |  | 3.53 µM (inactive) | 0.107 µM (active) | 4.23 µM (inactive) | 4.93 µM (inactive) | 1.04 µM (active) | < 0.0025 µM (active) | 3.3 µM (inactive) | 3.71 µM (inactive) | 3.74 µM (inactive) | 1.22 µM (inactive) | < 0.0025 µM (active) | 3.75 µM (inactive) | 3.3 µM (inactive) | 5.36 µM (inactive) | < 0.0025 µM (active) | < 0.0025 µM (active) | 3.6 µM (inactive) | 
10 | COc1cccc(O)c1-c1cc(=O)c2c(O)c(OC)c(OC)c(OC)c2o1 [SKULLCAPFLAVONE II] | 34.5 µM (inactive) |  | 7.59 µM (inactive) | 20.4 µM (inactive) | 22.1 µM (inactive) | 36.4 µM (inactive) | 19.1 µM (inactive) | 22.7 µM (inactive) | 50.9 µM (inactive) | 35.3 µM (inactive) | 28 µM (inactive) | 44.8 µM (inactive) | 27 µM (inactive) | 27.2 µM (inactive) | 16.4 µM (inactive) | 35.9 µM (inactive) | 27.3 µM (inactive) | 18.7 µM (inactive) | 14.1 µM (inactive) | 
11 | O=C(NC1CCCCCC1)C1C(=O)N(C2CCCCCC2)C(=O)/C1=N\O (stereo not drawn) | 27.2 µM (inactive) |  | 19.5 µM (inactive) | 22.5 µM (inactive) | 20.6 µM (inactive) | 24.4 µM (inactive) | 35.7 µM (inactive) | 19.6 µM (inactive) | 50.8 µM (inactive) | 29.1 µM (inactive) | 34.7 µM (inactive) | 6.12 µM (inactive) | 38.8 µM (inactive) |  |  |  |  | 29.1 µM (inactive) | 23.5 µM (inactive) | 33 µM (inactive)
12 | CC(=O)C1C(=O)C(C(C)=O)C2C3C=CC(C3)C12 (stereo not drawn) | > 100 µM (inactive) |  | > 100 µM (inactive) | > 100 µM (inactive) | > 100 µM (inactive) | > 100 µM (inactive) | > 100 µM (inactive) | > 100 µM (inactive) | > 100 µM (inactive) | > 100 µM (inactive) | > 100 µM (inactive) | > 100 µM (inactive) | > 100 µM (inactive) | > 100 µM (inactive) | > 100 µM (inactive) | > 100 µM (inactive) | > 100 µM (inactive) | > 100 µM (inactive) | > 100 µM (inactive) | 
13 | COc1cc(OC)c2c(=O)cc(-c3ccc(OC)c(OC)c3OC)oc2c1 | > 10 µM (inactive) |  | > 100 µM (inactive) | > 100 µM (inactive) | 37 µM (inactive) | > 100 µM (inactive) |  | 38.9 µM (inactive) | > 100 µM (inactive) | 48.2 µM (inactive) | > 100 µM (inactive) | > 100 µM (inactive) | > 100 µM (inactive) |  |  |  |  | > 100 µM (inactive) | 57.5 µM (inactive) | > 100 µM (inactive)
14 | CC1=NN(C(=O)c2ccccc2O)C(=O)/C1=C/c1ccco1 | 1.61 µM (inactive) |  | > 22.8 µM (inactive) | 1.49 µM (inactive) | 7.03 µM (inactive) | 11.9 µM (inactive) | 1.59 µM (inactive) | 1.74 µM (inactive) | 9.18 µM (inactive) | 1.11 µM (active) | 2.96 µM (inactive) | 33.9 µM (inactive) | 8.73 µM (inactive) | 12.6 µM (inactive) | 4.74 µM (inactive) |  | 4.27 µM (inactive) | 5.57 µM (inactive) | 0.171 µM (active) | 0.604 µM (active)
15 | O=C1CCC2(c3ccccc3)Nc3cc(Cl)ccc3N12 (stereo not drawn) | 25.1 µM (inactive) |  | 42.1 µM (inactive) | 20.8 µM (inactive) | 13.7 µM (inactive) | 25.8 µM (inactive) | 32.7 µM (inactive) | 26.9 µM (inactive) | 58.9 µM (inactive) | 40.8 µM (inactive) | 35.1 µM (inactive) | 39.2 µM (inactive) | 24 µM (inactive) |  |  |  |  | 22 µM (inactive) | 28.4 µM (inactive) | 21.4 µM (inactive)
16 | O=c1c2sc(=S)n(-c3ccc(F)cc3)c2ncn1/N=C/c1ccc(F)cc1F | 63.7 µM (inactive) |  | 31 µM (inactive) | 22.8 µM (inactive) | 11 µM (inactive) | 18.7 µM (inactive) | 39.2 µM (inactive) | 44.5 µM (inactive) | 32.2 µM (inactive) | 18.7 µM (inactive) | 31.3 µM (inactive) | 18.1 µM (inactive) | 34.9 µM (inactive) | 15.4 µM (inactive) | 19 µM (inactive) | 29.1 µM (inactive) | 41.5 µM (inactive) | 52.2 µM (inactive) | 15.8 µM (inactive) | 
